Measured values taken from US8507676B2, “Heterocyclic oxime compounds” (Novartis AG, priority 2009, dated 2013).

What was measured:
[1] = biological target: c-MET receptor tyrosine kinase, GST-c-MET(969-1390) (Homo sapiens (Human), UniProt P08581); assay: EPK c-MET profiling assay (LanthaScreen TR-FRET kinase assay); type: biochemical; conditions: recombinant GST-c-MET(969-1390), 2 μM ATP, 60 minutes at room temperature; read-out: c-Met biochem (IC50 nM)
Description: A number of compounds of the present invention were assayed in an antibody based kinase phosphorylation assay as follows.
EPK c-MET Profiling Assay:
The EPK kinase assay for c-MET receptor tyrosine kinase was developed, using the purified recombinant GST-fusion protein, containing the cytoplasmic domain of the enzyme.
The kinase assay is based on the LanthaScreen™ technology. LanthaScreen™ is the detection of Time-Resolved Fluorescence Resonance Energy Transfer (TR-FRET) using lanthanide chelates to measure interactions between various binding partners. In a TR-FRET kinase assay, a long-lifetime lanthanide donor species is conjugated to an antibody that specifically binds to a phosphorylated product of a kinase reaction that is labeled with a suitable acceptor fluorophore. This antibody-mediated interaction brings the lanthanide donor and the acceptor into proximity such that resonance energy transfer can take place, resulting in a detectable increase in the FRET signal.
The kinase reactions were performed in 384 well microtiter plates in a total reaction volume of 10.05 μL. […]
Subsequently 5 μL of detection mix (50 mM Tris/HCl, 2 mM DTT, 0.05% Tween20, 20 μM sodium orthovanadate, 1% BSA, 1 nM Tb-PY20 antibody) were added to the stopped reactions. After 45 minutes incubation in dark at room temperature, the plates were measured in a Perkinelmer Envision fluorescence reader.

[2] = stability of the isolated compound at nucleophiles such as methanol; type: physicochemical; conditions: degrades into starting material 75-R
Description: Previously prepared (E)-1-(3-(1-(5,7-difluoroquinolin-6-yl)ethyl)-[1,2,4]triazolo[4,3-b]pyridazin-6-yl)ethanone oxime (75-R, 100 mg, 0.271 mmol) in anhydrous THF (8 mL) was added diphosgene (0.1 mL, 0.829 mmol) dropwise at 0° C., and the reaction mixture was heated at 50° C. for 4 hr. Oil bath was removed, and the reaction mixture was cooled in an ice-water bath. An ammonia solution (0.5 N in dioxane, 8.0 mL, 4.0 mmol) was added dropwise. The temperature was allowed to rise to rt naturally, and the reaction mixture was stirred at rt overnight. Solvent was evaporated, and the residue was purified by column chromatography (8% methanol in ethyl acetate as eluent) to afford 64 mg (45.8% yield) of title compound as white solid, which was unstable at nucleophiles such as methanol, and was pro to degrade into starting material 75-R. ^1H-NMR (400 MHz, DMSO-d6) δ ppm 8.96 (d, 1H), 8.44 (d, 1H), 8.34 (d, 1H), 8.10 (d, 1H), 7.56-7.74 (m, 2H), 7.34 (s br, 2H), 5.27 (q, 1H), 2.02 (d, 3H), 2.03 (s, 3H). LCMS (method B): [MH]^+=412, tR=2.25 min.

c-MET receptor tyrosine kinase, GST-c-MET(969-1390), sequence (P08581 969-1390): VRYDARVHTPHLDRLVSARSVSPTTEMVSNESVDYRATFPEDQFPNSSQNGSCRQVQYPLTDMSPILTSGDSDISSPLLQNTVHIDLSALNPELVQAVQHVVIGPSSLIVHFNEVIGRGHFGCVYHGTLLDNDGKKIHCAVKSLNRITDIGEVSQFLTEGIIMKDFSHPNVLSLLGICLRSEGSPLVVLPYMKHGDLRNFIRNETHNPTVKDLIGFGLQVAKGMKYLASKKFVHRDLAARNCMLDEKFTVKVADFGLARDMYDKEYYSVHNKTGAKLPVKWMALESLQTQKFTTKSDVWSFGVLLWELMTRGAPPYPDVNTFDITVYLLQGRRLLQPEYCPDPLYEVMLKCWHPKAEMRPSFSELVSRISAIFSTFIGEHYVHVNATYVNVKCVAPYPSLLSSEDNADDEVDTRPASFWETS

IC50 [1] | stability at nucleophiles such as methanol [2] | SMILES
1.5 nM | – | C/C(=N\OCCO)c1ccc2nnc(C(F)(F)c3ccc4ncccc4c3)n2n1 [Example 50, (E)-1-(3-(Difluoro(quinolin-6-yl)methyl)-[1,2,4]triazolo[4,3-b]pyridazin-6-yl)ethanone O-2-hydroxyethyl oxime]
– | unstable | C/C(=N\OC(N)=O)c1ccc2nnc([C@H](C)c3c(F)cc4ncccc4c3F)n2n1 [Example 77-R, (R,E)-1-(3-(1-(5,7-difluoroquinolin-6-yl)ethyl)-[1,2,4]triazolo[4,3-b]pyridazin-6-yl)ethanone O-carbamoyl oxime]
